20 molecules from patent US9938276B2, “6,5-bicyclic octahydropyrrolopyridine orexin receptor antagonists” (Merck Sharp & Dohme Corp., priority 2014, dated 2018) can be followed below.

The target in one assay is hOX1R (Homo sapiens, UniProt O43613). As to the kind of experiment: hOX1R FLIPR Ca2+ flux assay. It is filed as cell-based. The settings on record: CHO cells expressing the receptor; agonist 70 pM Ala-6,12 human orexin-A.
The next assay addresses human orexin-2 receptor (Homo sapiens (Human), UniProt O43614). As to the kind of experiment: hOX2R FLIPR Ca2+ flux assay. The settings on record: CHO cells expressing the receptor; agonist 70 pM Ala-6,12 human orexin-A. It is filed as cell-based. The method in brief: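 CHO cells stably expressing rat OX1R or human OX2R were loaded with 1 μM Fluo-4AM for 60 min at 37 °C, then preincubated with compound for 5 min before challenge with 70 pM Ala-6,12 human orexin-A. FLIPR peak fluorescence was compared with agonist-only wells.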

human orexin-2 receptor, sequence (O43614 whole entry): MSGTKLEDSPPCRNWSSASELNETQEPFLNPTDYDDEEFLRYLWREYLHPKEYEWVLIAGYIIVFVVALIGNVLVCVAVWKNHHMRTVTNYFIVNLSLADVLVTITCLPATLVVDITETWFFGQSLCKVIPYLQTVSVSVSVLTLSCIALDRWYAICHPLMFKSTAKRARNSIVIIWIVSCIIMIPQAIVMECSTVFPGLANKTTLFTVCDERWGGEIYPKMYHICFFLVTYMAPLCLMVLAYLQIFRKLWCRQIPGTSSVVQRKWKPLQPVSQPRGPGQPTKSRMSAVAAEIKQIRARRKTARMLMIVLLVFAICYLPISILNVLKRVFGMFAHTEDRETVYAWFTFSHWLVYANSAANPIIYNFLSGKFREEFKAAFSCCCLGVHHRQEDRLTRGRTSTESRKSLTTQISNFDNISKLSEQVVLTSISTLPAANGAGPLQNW

Turning to `N#Cc1ccnc(N2CC[C@@H]3CCN(C(=O)c4ccccc4OCC(F)(F)F)C[C@@H]32)c1` [Example E9, 2-[(3aR, 7aR)-6-{[2-(2,2,2-trifluoroethoxy)phenyl]carbonyl}octahydro-1H-pyrrolo[2,3-c]pyridin-1-yl]pyridine-4-carbonitrile], the results for the IC50 at hOX1R and at human orexin-2 receptor were no less than 10 µM and 0.319 µM, respectively.

In the case of `N#Cc1ccnc(N2CC[C@@H]3CCN(C(=O)c4ccccc4OCC(F)F)C[C@@H]32)c1` [Example E10, 2-[(3aR, 7aR)-6-{[2-(2,2-difluoroethoxy)phenyl]carbonyl}octahydro-1H-pyrrolo[2,3-c]pyridin-1-yl]pyridine-4-carbonitrile], the IC50 at hOX1R was 10 µM; at human orexin-2 receptor it was 0.139 µM.

On to `N#Cc1ccnc(N2CC[C@@H]3CCN(C(=O)c4cccnc4CC(F)(F)F)C[C@@H]32)c1` [Example E11, 2-[(3aR, 7aR)-6-{[2-(2,2,2-trifluoroethyl)pyridin-3-yl]carbonyl}octahydro-1H-pyrrolo[2,3-c]pyridin-1-yl]pyridine-4-carbonitrile], for which the 50% inhibitory concentration (IC50) at hOX1R was 10 µM; on human orexin-2 receptor, 2.11 µM.

Take `N#Cc1ccnc(N2CC[C@@H]3CCN(C(=O)c4ccccc4C4CC4)C[C@@H]32)c1` [Example E12, 2-{(3aR, 7aR)-6-[(2-cyclopropylphenyl)carbonyl]octahydro-1H-pyrrolo[2,3-c]pyridin-1-yl}pyridine-4-carbonitrile]: the IC50 at hOX1R was 10 µM; on human orexin-2 receptor, 0.0816 µM.

As to `COc1ccc(C(=O)N2CC[C@H]3CCN(c4cc(C#N)ccn4)[C@H]3C2)c(C2CC2)n1` [Example E13, 2-{(3aR, 7aR)-6-[(2-cyclopropyl-6-methoxypyridin-3-yl)carbonyl]octahydro-1H-pyrrolo[2,3-c]pyridin-1-yl}pyridine-4-carbonitrile], the figures for the IC50 on hOX1R and at human orexin-2 receptor were 10 µM and 0.98 µM, respectively.

Consider `N#Cc1ccnc(N2CC[C@@H]3CCN(C(=O)c4ccccc4-n4cccn4)C[C@@H]32)c1` [Example E14, 2-[(3aR, 7aR)-6-{[2-(1H-pyrazol-1-yl)phenyl]carbonyl}octahydro-1H-pyrrolo[2,3-c]pyridin-1-yl]pyridine-4-carbonitrile], for which the IC50 at hOX1R was 10 µM; at human orexin-2 receptor, 0.256 µM.

As for `N#Cc1ccnc(N2CC[C@@H]3CCN(C(=O)c4ccccc4C4CCC4)C[C@@H]32)c1` [Example E15, 2-{(3aR, 7aR)-6-[(2-cyclobutylphenyl)carbonyl]octahydro-1H-pyrrolo[2,3-c]pyridin-1-yl}pyridine-4-carbonitrile], the IC50 amounted to 9.72 µM at hOX1R and 0.0311 µM at human orexin-2 receptor.

`N#Cc1ccnc(N2CC[C@@H]3CCN(C(=O)c4ccccc4N4CCCC4)C[C@@H]32)c1` [Example E16, 2-{(3aR, 7aR)-6-[(2-pyrrolidin-1-ylphenyl)carbonyl]octahydro-1H-pyrrolo[2,3-c]pyridin-1-yl}pyridine-4-carbonitrile]: the IC50 was found to be 10 µM on hOX1R and 0.0989 µM at human orexin-2 receptor.

For `N#Cc1ccnc(N2CC[C@@H]3CCN(C(=O)c4nccnc4N4CCCC4)C[C@@H]32)c1` [Example E17, 2-{(3aR, 7aR)-6-[(3-pyrrolidin-1-ylpyrazin-2-yl)carbonyl]octahydro-1H-pyrrolo[2,3-c]pyridin-1-yl}pyridine-4-carbonitrile], the IC50 on hOX1R and at human orexin-2 receptor was 10 µM throughout.

`N#Cc1ccnc(N2CC[C@@H]3CCN(C(=O)c4ncccc4-c4ccccc4)C[C@@H]32)c1` [Example E18, 2-{(3aR, 7aR)-6-[(3-phenylpyridin-2-yl)carbonyl]octahydro-1H-pyrrolo[2,3-c]pyridin-1-yl}pyridine-4-carbonitrile]: the IC50 at hOX1R was no less than 10 µM; at human orexin-2 receptor it was 0.0769 µM.

For the molecule `CC(C)Oc1ncccc1C(=O)N1CC[C@H]2CCN(c3cc(C#N)ccn3)[C@H]2C1` [Example E19, 2-[(3aR, 7aR)-6-{[2-(1-methylethoxy)pyridin-3-yl]carbonyl}octahydro-1H-pyrrolo[2,3-c]pyridin-1-yl]pyridine-4-carbonitrile], the IC50 stood at 10 µM on hOX1R and 1.4 µM on human orexin-2 receptor.

Consider `N#Cc1ccnc(N2CC[C@@H]3CCN(C(=O)c4ncccc4-n4nccn4)C[C@@H]32)c1` [Example E20, 2-[(3aR, 7aR)-6-{[3-(2H-1,2,3-triazol-2-yl)pyridin-2-yl]carbonyl}octahydro-1H-pyrrolo[2,3-c]pyridin-1-yl]pyridine-4-carbonitrile], for which the half-inhibitory concentration (IC50) on hOX1R is no less than 10 µM; on human orexin-2 receptor it was 1.5 µM.

In the case of `N#Cc1ccnc(N2CC[C@@H]3CCN(C(=O)c4ccccc4OC(F)F)C[C@@H]32)c1` [Example E21, 2-[(3aR, 7aR)-6-{[2-(difluoromethoxy)phenyl]carbonyl}octa-hydro-1H-pyrrolo[2,3-c]pyridin-1-yl]pyridine-4-carbonitrile], the results for the IC50 on hOX1R and on human orexin-2 receptor were 10 µM and 1.52 µM, respectively.

For `N#Cc1ccnc(N2CC[C@@H]3CCN(C(=O)c4ccccc4C4CC4(F)F)C[C@@H]32)c1` (stereo partly drawn) [Example E22, 2-[(3aR, 7aR)-6-{[2-(2,2-difluorocyclopropyl)phenyl]carbonyl}octa-hydro-1H-pyrrolo[2,3-c]pyridin-1-yl]pyridine-4-carbonitrile], the IC50 on hOX1R is 10 µM; on human orexin-2 receptor, 0.0438 µM.

Take `N#Cc1ccnc(N2CC[C@@H]3CCN(C(=O)c4ccccc4-c4ncccn4)C[C@@H]32)c1` [Example E23, 2-{(3aR, 7aR)-6-[(2-pyrimidin-2-ylphenyl)carbonyl]octahydro-1H-pyrrolo[2,3-c]pyridin-1-yl}pyridine-4-carbonitrile]: the IC50 at hOX1R is no less than 10 µM; at human orexin-2 receptor, 0.0995 µM.

As for `NC(=O)c1ccnc(N2CC[C@@H]3CCN(C(=O)c4ccccc4-n4nccn4)C[C@@H]32)c1` [Example F1, 2-((3aR,7aR)-6-(2-(2H-1,2,3-triazol-2-yl)benzoyl)octahydro-1H-pyrrolo[2,3-c]pyridin-1-yl)isonicotinamide], the values for the half-maximal inhibitory concentration (IC50) on hOX1R and at human orexin-2 receptor were no less than 10 µM and 0.562 µM, respectively.

Consider `N#Cc1ccnc(N2CC[C@@H]3C[C@@H](CO)N(C(=O)c4ccccc4-n4nccn4)C[C@@H]32)c1` [Example G1, 2-((3aR,5S,7aR)-6-(2-(2H-1,2,3-triazol-2-yl)benzoyl)-5-(hydroxymethyl)octahydro-1H-pyrrolo[2,3-c]pyridin-1-yl)isonicotinonitrile], for which the IC50 at hOX1R amounted to 2.75 µM; on human orexin-2 receptor it was 0.0082 µM.

As for `CCOC(=O)[C@@H]1C[C@H]2CCN(c3cc(C#N)ccn3)[C@H]2CN1C(=O)c1ccccc1-n1nccn1` [Example G2, (3aR,5S,7aR)-ethyl 6-(2-(2H-1,2,3-triazol-2-yl)benzoyl)-1-(4-cyanopyridin-2-yl)octahydro-1H-pyrrolo[2,3-c]pyridine-5-carboxylate], the IC50 at hOX1R is no less than 10 µM; at human orexin-2 receptor, 0.198 µM.

Consider `N#Cc1ccnc(N2CC[C@@H]3C[C@@H](CO)N(C(=O)c4ccccc4-n4nccn4)C[C@@H]32)c1` [Example G4], for which the figures for the concentration for half-maximal inhibition (IC50) at hOX1R and on human orexin-2 receptor were 10 µM and 2.08 µM, respectively.

As for `C[C@H]1C[C@H]2CCN(c3cc(C#N)ccn3)[C@H]2CN1C(=O)c1ccccc1-n1nccn1` [Example H1, 2-(6-(2-(2H-1,2,3-triazol-2-yl)benzoyl)-5-methloctahydro-1H-pyrrolo[2,3-c]pyridin-1-yl)isonicotinonitrile], the IC50 at hOX1R was found to be 2.37 µM; at human orexin-2 receptor it was 0.0184 µM.
